Laboratory results published in patent publication US20070202577A1, “Method For The Production Of Hyperbranched Polysaccharide Fractions” (priority 2004, published 2007).

Target: T1, α-amylase from porcine pancreas (Sus scrofa, UniProt P00690)
T1 sequence (P00690 16-511): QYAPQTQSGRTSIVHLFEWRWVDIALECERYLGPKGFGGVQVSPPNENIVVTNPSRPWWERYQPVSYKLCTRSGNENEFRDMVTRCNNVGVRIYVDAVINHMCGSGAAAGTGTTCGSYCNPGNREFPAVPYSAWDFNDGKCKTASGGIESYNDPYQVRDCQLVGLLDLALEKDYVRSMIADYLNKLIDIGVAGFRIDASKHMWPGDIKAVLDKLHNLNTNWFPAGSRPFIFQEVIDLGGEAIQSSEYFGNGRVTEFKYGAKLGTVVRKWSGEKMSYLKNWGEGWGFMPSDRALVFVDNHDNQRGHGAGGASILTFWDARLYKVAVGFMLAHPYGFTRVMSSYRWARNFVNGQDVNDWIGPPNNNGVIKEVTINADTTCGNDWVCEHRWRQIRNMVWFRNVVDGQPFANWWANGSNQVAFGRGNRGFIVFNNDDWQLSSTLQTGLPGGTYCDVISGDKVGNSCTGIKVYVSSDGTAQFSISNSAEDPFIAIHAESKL
Experimental: The solution was heated to 37.0° C., and 0.5 I.U./ml α-amylase from porcine pancreas (from Roche; AS, Art. No. 102 814) was added. Samples were taken after 1 and 3 hours, the enzyme was inactivated by heat, and the molecular weight of the remaining high molecular weight fraction was determined by HPGPC.

rate of degradation with α-amylase, compared with the hyperbranched amylopectin fraction from example 7: comparable
initial weight average molecular weight (pH 7.2): 140 200 daltons
weight average molecular weight after hydrolysis for 1 hour (pH 7.2): 54 700 daltons
weight average molecular weight after hydrolysis for 3 hours (pH 7.2): 33 700 daltons
Substance: hydroxyethyl starch [Voluven]
